From PubChem BioAssay (NCI)
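Tested at 5 concentrations; 48 h exposure; 96-well plates; endpoints linearly interpolated, else capped at highest concentration. TGI marks complete inhibition of growth.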

Legend:
Assay in all cases: DTP human tumour cell line panel, 48 h
[1] = test system: NCI-H460 lung
[2] = test system: OVCAR-3 ovarian
[3] = test system: NCI-H226 lung
[4] = test system: SK-MEL-5 melanoma
[5] = test system: LOX IMVI melanoma
[6] = test system: HS 578T breast
[7] = test system: UACC-62 melanoma
[8] = test system: HOP-92 NSCLC
[9] = test system: HL-60(TB) leukemia
[10] = test system: CAKI-1 renal
[11] = test system: SR leukemia
[12] = test system: RPMI-8226 leukemia
[13] = test system: COLO 205 colon
[14] = test system: UO-31 renal
[15] = test system: SNB-75 CNS
[16] = test system: EKVX NSCLC
[17] = test system: SF-268 CNS
[18] = test system: SK-MEL-2 melanoma
[19] = test system: NCI/ADR-RES ovarian
[20] = test system: DU-145 prostate
[21] = test system: 786-0 renal
[22] = test system: OVCAR-4 ovarian
[23] = test system: NCI-H522 lung
[24] = test system: OVCAR-5 ovarian
[25] = test system: HCT-116 colon
[26] = test system: RXF 393 renal
[27] = test system: SNB-19 CNS
[28] = test system: UACC-257 melanoma
[29] = test system: CCRF-CEM leukemia
[30] = test system: IGROV1 ovarian
[31] = test system: K-562 leukemia
[32] = test system: MDA-N
[33] = test system: SK-OV-3 ovarian
[34] = test system: ACHN renal
[35] = test system: SN12C renal
[36] = test system: HOP-62 NSCLC
[37] = test system: BT-549 breast
[38] = test system: T-47D breast
[39] = test system: MDA-MB-231 breast
[40] = test system: MCF7 breast
[41] = test system: KM12 colon
[42] = test system: SW-620 colon
[43] = test system: HT29 colon
[44] = test system: OVCAR-8 ovarian
[45] = test system: HCC-2998 colon
[46] = test system: U251 CNS
[47] = test system: MDA-MB-435
[48] = test system: M14 melanoma
[49] = test system: SF-295 CNS
[50] = test system: PC-3 prostate
[51] = test system: NCI-H23 lung
[52] = test system: HCT-15 colon
[53] = test system: SF-539 CNS
[54] = test system: SK-MEL-28 melanoma
[55] = test system: TK-10 renal
[56] = test system: A549 NSCLC
[57] = test system: MALME-3M melanoma
[58] = test system: MOLT-4 leukemia

## O=C1OC(c2ccc(Cl)cc2)=N/C1=C\c1ccccc1
[1]
  TGI: > 100 µM
[2]
  TGI: > 100 µM
[3]
  TGI: > 100 µM
[4]
  TGI: > 100 µM
[5]
  TGI: > 100 µM
[6]
  TGI: > 100 µM
[7]
  TGI: > 100 µM
[8]
  TGI: > 100 µM
[9]
  TGI: > 100 µM
[10]
  TGI: > 100 µM
[11]
  TGI: > 100 µM
[12]
  TGI: > 100 µM
[13]
  TGI: > 100 µM
[14]
  TGI: > 100 µM
[15]
  TGI: > 100 µM
[16]
  TGI: > 100 µM
[17]
  TGI: > 100 µM
[18]
  TGI: > 100 µM
[19]
  TGI: > 100 µM
[20]
  TGI: > 100 µM
[21]
  TGI: > 100 µM
[22]
  TGI: > 100 µM
[23]
  TGI: > 100 µM
[24]
  TGI: > 100 µM
[25]
  TGI: > 100 µM
[26]
  TGI: > 100 µM
[27]
  TGI: > 100 µM
[28]
  TGI: > 100 µM
[29]
  TGI: > 100 µM
[30]
  TGI: > 100 µM
[31]
  TGI: > 100 µM
[32]
  TGI: > 100 µM
[33]
  TGI: > 100 µM
[34]
  TGI: > 100 µM
[35]
  TGI: > 100 µM
[36]
  TGI: > 100 µM
[37]
  TGI: > 100 µM
[38]
  TGI: > 100 µM
[39]
  TGI: > 100 µM
[40]
  TGI: > 100 µM
[41]
  TGI: > 100 µM
[42]
  TGI: > 100 µM
[43]
  TGI: > 100 µM
[44]
  TGI: > 100 µM
[45]
  TGI: > 100 µM
[46]
  TGI: > 100 µM
[47]
  TGI: > 100 µM
[48]
  TGI: > 100 µM
[49]
  TGI: > 100 µM
[50]
  TGI: > 100 µM
[51]
  TGI: > 100 µM
[52]
  TGI: > 100 µM
[53]
  TGI: > 100 µM
[54]
  TGI: > 100 µM
[55]
  TGI: > 100 µM
[56]
  TGI: > 100 µM

## CC[C@@H]1CSC(/C=C/C2OC3OC(C)(C)OC3C3OC(C)(C)OC23)=N1 (stereo partly drawn)
[1]
  TGI: 61.2 µM
[2]
  TGI: 16.7 µM
[3]
  TGI: 35.9 µM
[4]
  TGI: 20 µM
[5]
  TGI: 20.6 µM
[6]
  TGI: 75.2 µM
[7]
  TGI: 26.8 µM
[8]
  TGI: 19.2 µM
[9]
  TGI: 5.67 µM
[10]
  TGI: 28.6 µM
[11]
  TGI: 37.4 µM
[12]
  TGI: 32.5 µM
[57]
  TGI: 23.8 µM
[13]
  TGI: 18 µM
[14]
  TGI: 22.8 µM
[15]
  TGI: 29.6 µM
[16]
  TGI: 25.6 µM
[17]
  TGI: 18.8 µM
[18]
  TGI: 29.8 µM
[19]
  TGI: 95.7 µM
[58]
  TGI: 26.6 µM
[20]
  TGI: 5.19 µM
[21]
  TGI: 15.9 µM
[22]
  TGI: 17.7 µM
[23]
  TGI: 12.1 µM
[24]
  TGI: 22.8 µM
[25]
  TGI: 14.2 µM
[26]
  TGI: 9.59 µM
[27]
  TGI: 54.8 µM
[28]
  TGI: 26.4 µM
[30]
  TGI: 26 µM
[31]
  TGI: 62.4 µM
[32]
  TGI: 21.3 µM
[33]
  TGI: 91.4 µM
[34]
  TGI: 21.2 µM
[35]
  TGI: 23.9 µM
[36]
  TGI: 59.4 µM
[37]
  TGI: 13.4 µM
[38]
  TGI: 16.8 µM
[39]
  TGI: 25.7 µM
[40]
  TGI: 16.8 µM
[41]
  TGI: 33.3 µM
[42]
  TGI: 11.2 µM
[43]
  TGI: 15.9 µM
[44]
  TGI: 23.8 µM
[45]
  TGI: 12.7 µM
[46]
  TGI: 26.4 µM
[47]
  TGI: 20 µM
[48]
  TGI: 22.9 µM
[49]
  TGI: 46.6 µM
[50]
  TGI: 26 µM
[51]
  TGI: 23.1 µM
[52]
  TGI: 15.3 µM
[53]
  TGI: 30.4 µM
[54]
  TGI: 34.7 µM
[55]
  TGI: 14.6 µM
[56]
  TGI: 49.6 µM
